# Laboratory results: patent publication US8466199B2, “Allyloxy and alkyloxy benzoic acid delivery agents” (Emisphere Technologies, Inc., priority 2007, dated 2013)
# Columns and labels:
# [1] = test system: fasted male Sprague-Dawley rats; assay: Oral delivery of insulin to male Sprague-Dawley rats (blood glucose by glucometer, compared to vehicle control); type: in vivo, rat
# [2] = test system: fasted male Sprague-Dawley rats; assay: as above; type: in vivo, rat; conditions: oral gavage, 200 mg/kg delivery agent + 0.5 mg/kg insulin, C minimum over 0-60 min, average of experiments
# Protocol: Insulin stock solution (15 mg/ml) (Human zinc insulin, Calbiochem-Novabiochem Corp., La Jolla, Calif.) was prepared with deionized water. Oral dosing compositions containing 200 mg/kg of a delivery agent compound of the present invention and 0.5 mg/kg of insulin in an aqueous solution were prepared for the compounds prepared in Examples 2-24.
# (§1) One ml of the dosing solution was administered to fasted male Sprague-Dawley rats by oral gavage with an average weight of about 225-250 grams Blood glucose levels were then determined by glucometer (One Touch Ultra®, LifeScan, Inc.) and compared to vehicle control (1 ml/kg of water). Samples were collected prior to dosing (time 0) and at 15, 30, 45 and 60 minutes after dosing. The % glucose reduction is shown below in Table 1. The values correspond to the C minimum, and are an average % reduction with respect to the number of times the experiment was run for each delivery agent.
# The solutions were administered to fasted male Sprague-Dawley rats and the % glucose reduction was determined in the same manner as described above.
# as §1, with “Insulin stock solution (15 mg/ml) (Human zinc insulin, Calbiochem-Novabiochem Corp., La Jolla, Calif.) was prepared with deionized water. Oral dosing compositions containing 200 mg/kg of a delivery agent compound of the present invention and 0.5 mg/kg of insulin in an aqueous solution were prepared for the compounds prepared in Examples 27-34. One ml” for “One ml”, “about 225-250 grams. Blood glucose” for “about 225-250 grams Blood glucose”, “in Table 3. The values” for “in Table 1. The values”
# as §1, with “Insulin stock solution (15 mg/ml) (Human zinc insulin, Calbiochem-Novabiochem Corp., La Jolla, Calif.) was prepared with deionized water. Oral dosing compositions containing 200 mg/kg of a delivery agent compound of the present invention and 0.5 mg/kg of insulin in an aqueous solution were prepared for the compounds prepared in Examples 37-49. One ml” for “One ml”, “about 225-250 grams. Blood glucose” for “about 225-250 grams Blood glucose”, “in Table 5. The values” for “in Table 1. The values”
# [3] = Table 2, Insulin Dose 0 mg/kg, Carrier Dose 200 mg/kg
# [4] = Table 2, Insulin Dose 0.25 mg/kg, Carrier Dose 200 mg/kg
smiles,measurement,setting,value
"C=CCOc1ccccc1C(=O)O [Compound 1, 2-Allyloxy-benzoic acid]",Glucose (Absolute change from Control),[1]; [3],−12.5%
same,Glucose (Absolute change from Control),"[1]; Table 2, Insulin Dose 0.25 mg/kg, Carrier Dose 100 mg/kg",−17.9%
same,Glucose (Absolute change from Control),[1]; [4],3.0%
same,Glucose (Absolute change from Control),"[2]; Table 1, aqueous solution",−35.1%
"C=CCOc1ccc(C(=O)O)cc1 [Compound 2, 4-Allyloxy-benzoic acid]",Glucose (Absolute change from Control),"[2]; Table 1, aqueous solution",−42.4%
"C=CCCOc1ccccc1C(=O)O [Compound 3, 2-But-3-enyloxy-benzoic acid]",Glucose (Absolute change from Control),"[2]; Table 1, aqueous solution",−25.5%
"C=CCCOc1ccc(C(=O)O)cc1 [Compound 4, 4-But-3-enyloxy-benzoic acid]",Glucose (Absolute change from Control),[1]; [3],8.8%
same,Glucose (Absolute change from Control),[1]; [4],−11.4%
same,Glucose (Absolute change from Control),"[2]; Table 1, aqueous solution",−41.6%
"C=CCCOc1cccc(C(=O)O)c1 [Compound 5, 3-But-3-enyloxy-benzoic acid]",Glucose (Absolute change from Control),[1]; [3],−6.3%
same,Glucose (Absolute change from Control),[1]; [4],−5.4%
same,Glucose (Absolute change from Control),"[2]; Table 1, aqueous solution",−40.8%
"C=CCOc1cccc(C(=O)O)c1 [Compound 6, 3-Allyloxy-benzoic acid]",Glucose (Absolute change from Control),[1]; [3],−10.7%
same,Glucose (Absolute change from Control),[1]; [4],−18.2%
same,Glucose (Absolute change from Control),"[2]; Table 1, aqueous solution",−42.8%
"CC(C)=CCOc1ccccc1C(=O)O [Compound 7, 2-(3-Methyl-but-2-enyloxy)-benzoic acid]",Glucose (Absolute change from Control),"[2]; Table 1, aqueous solution",−38.8%
"CC(C)=CCOc1cccc(C(=O)O)c1 [Compound 8, 3-(3-Methyl-but-2-enyloxy)-benzoic acid]",Glucose (Absolute change from Control),"[2]; Table 1, aqueous solution",−31.6%
"CC(C)=CCOc1ccc(C(=O)O)cc1 [Compound 9, 4-(3-Methyl-but-2-enyloxy)-benzoic acid]",Glucose (Absolute change from Control),"[2]; Table 1, aqueous solution",−27.8%
"C=CCOc1ccc(OC)cc1C(=O)O [Compound 10, 2-Allyloxy-5-methoxy-benzoic acid]",Glucose (Absolute change from Control),"[2]; Table 1, aqueous solution",−27.2%
"C=CCOc1cc(OC)ccc1C(=O)O [Compound 11, 2-Allyloxy-4-methoxy-benzoic acid]",Glucose (Absolute change from Control),"[2]; Table 1, aqueous solution",−24.0%
"C=CCOc1c(OC)cccc1C(=O)O [Compound 12, 2-Allyloxy-3-methoxy-benzoic acid]",Glucose (Absolute change from Control),"[2]; Table 1, aqueous solution",−13.5%
"C=CCOc1ccc(C)cc1C(=O)O [Compound 13, 2-Allyloxy-5-methyl-benzoic acid]",Glucose (Absolute change from Control),"[2]; Table 1, aqueous solution",−30.7%
"C=CCOc1cccc(C)c1C(=O)O [Compound 14, 2-Allyloxy-6-methyl-benzoic acid]",Glucose (Absolute change from Control),"[2]; Table 1, aqueous solution",−14.4%
"C=C(C)COc1ccccc1C(=O)O [Compound 15, 2-(2-Methyl-allyloxy)-benzoic acid]",Glucose (Absolute change from Control),"[2]; Table 1, aqueous solution",−37.4%
"C=CCOc1cc(OCCO)ccc1C(=O)O [Compound 16, 2-Allyloxy-4-(2-hydroxy-ethoxy)-benzoic acid]",Glucose (Absolute change from Control),"[2]; Table 1, aqueous solution",−4.6%
"C=CCOc1ccc(C(C)=O)cc1C(=O)O [Compound 17, 5-Acetyl-2-allyloxy-benzoic acid]",Glucose (Absolute change from Control),"[2]; Table 1, aqueous solution",0.6%
"C=CCOc1ccc(Br)cc1C(=O)O [Compound 18, 2-Allyloxy-5-bromo-benzoic acid]",Glucose (Absolute change from Control),"[2]; Table 1, aqueous solution",−5.0%
"C=CCOc1ccc(Cl)cc1C(=O)O [Compound 19, 2-Allyloxy-5-chloro-benzoic acid]",Glucose (Absolute change from Control),"[2]; Table 1, aqueous solution",−21.5%
"C=C(C)COc1ccc(C(=O)O)cc1 [Compound 20, 4-(2-Methyl-allyloxy)-benzoic acid]",Glucose (Absolute change from Control),"[2]; Table 1, aqueous solution",−51.1%
"C=C(C)COc1cccc(C(=O)O)c1 [Compound 21, 3-(2-Methyl-allyloxy)-benzoic acid]",Glucose (Absolute change from Control),"[2]; Table 1, aqueous solution",−27.4%
"C=CCOc1cc(C(=O)O)ccc1OC [Compound 22, 3-Allyloxy-4-methoxy-benzoic acid]",Glucose (Absolute change from Control),"[2]; Table 1, aqueous solution",−10.2%
"C=C(C)COc1cc(C(=O)O)ccc1OC [Compound 23, 4-Methoxy-3-(2-methyl-allyloxy)-benzoic acid]",Glucose (Absolute change from Control),"[2]; Table 1, aqueous solution",−8.4%
"CCCOc1cccc(C(=O)O)c1 [Compound 24, 3-Propoxy-benzoic acid]",Glucose (Absolute change from Control),[2]; Table 3,−15.2%
"CCCOc1ccc(C(=O)O)cc1 [Compound 25, 4-Propoxy-benzoic acid]",Glucose (Absolute change from Control),[2]; Table 3,−25.5%
"CCCOc1ccccc1C(=O)O [Compound 26, 2-Propoxy-benzoic acid]",Glucose (Absolute change from Control),[2]; Table 3,−14.2%
"CCCCOc1cccc(C(=O)O)c1 [Compound 27, 3-Butoxy-benzoic acid]",Glucose (Absolute change from Control),[2]; Table 3,−23.9%
"CCCCOc1ccc(C(=O)O)cc1 [Compound 28, 4-Butoxy-benzoic acid]",Glucose (Absolute change from Control),[2]; Table 3,−22.3%
"CCCCOc1ccccc1C(=O)O [Compound 29, 2-Butoxy-benzoic acid]",Glucose (Absolute change from Control),[2]; Table 3,−34.9%
"CC(C)COc1ccc(C(=O)O)cc1 [Compound 30, 4-Isobutoxy-benzoic acid]",Glucose (Absolute change from Control),[2]; Table 3,−29.8%
"CC(C)COc1cccc(C(=O)O)c1 [Compound 31, 3-Isobutoxy-benzoic acid]",Glucose (Absolute change from Control),[2]; Table 3,−9.5%
"C=CCOCc1ccc(C(=O)O)cc1 [Compound 32, 4-Allyloxymethyl-benzoic acid]",Glucose (Absolute change from Control),[2]; Table 5,−19.5%
"C=CCCOCc1ccc(C(=O)O)cc1 [Compound 33, 4-But-3-enyloxymethyl-benzoic acid]",Glucose (Absolute change from Control),[2]; Table 5,−38.5%
"C=CC(C)OCc1ccc(C(=O)O)cc1 (centres unmarked) [Compound 34, 4-(1-Methyl-allyloxymethyl)-benzoic acid]",Glucose (Absolute change from Control),[2]; Table 5,−16.6%
"C=C(C)COCc1ccc(C(=O)O)cc1 [Compound 35, 4-(2-Methyl-allyloxymethyl)-benzoic acid]",Glucose (Absolute change from Control),[2]; Table 5,−16.0%
"C=CCCOCc1cccc(C(=O)O)c1 [Compound 36, 3-But-3-enyloxymethyl-benzoic acid]",Glucose (Absolute change from Control),[2]; Table 5,−20.7%
"C=C(C)COCc1cccc(C(=O)O)c1 [Compound 37, 3-(2-Methyl-allyloxymethyl)-benzoic acid]",Glucose (Absolute change from Control),[2]; Table 5,−8.4%
"C=CCOCc1cccc(C(=O)O)c1 [Compound 38, 3-Allyloxymethyl-benzoic acid]",Glucose (Absolute change from Control),[2]; Table 5,−13.1%
"CCOCc1ccc(C(=O)O)cc1 [Compound 39, 4-Ethoxymethyl-benzoic acid]",Glucose (Absolute change from Control),[2]; Table 5,−1.9%
"CC(C)OCc1ccc(C(=O)O)cc1 [Compound 40, 4-Isopropoxymethyl-benzoic acid]",Glucose (Absolute change from Control),[2]; Table 5,−31.9%
"CCCOCc1ccc(C(=O)O)cc1 [Compound 41, 4-Propoxymethyl-benzoic acid]",Glucose (Absolute change from Control),[2]; Table 5,−19.2%
"CCOCc1cccc(C(=O)O)c1 [Compound 42, 3-Ethoxymethyl-benzoic acid]",Glucose (Absolute change from Control),[2]; Table 5,−11.3%
"CC(C)OCc1cccc(C(=O)O)c1 [Compound 43, 3-Isopropoxymethyl-benzoic acid]",Glucose (Absolute change from Control),[2]; Table 5,−29.3%
"CCCOCc1cccc(C(=O)O)c1 [Compound 44, 3-Propoxymethyl-benzoic acid]",Glucose (Absolute change from Control),[2]; Table 5,−20.8%
